From patent US8501446B2 (Vertex Pharmaceuticals Incorporated, priority 2004, dated 2013)

Assays:
[1] = biological target: T1, ROCK I (AA 6-553) (Homo sapiens, UniProt Q13464); assay: ROCK inhibition assay, standard coupled enzyme system ("Enzyme"); assay type: biochemical; conditions: enzyme-linked assay
T1 construct: ROCK I (AA 6-553)
Experimental: Compounds were screened for their ability to inhibit ROCK I (AA 6-553) activity using a standard coupled enzyme system (Fox et al. (1998) Protein Sci. 7, 2249). Reactions were carried out in a solution containing 100 mM HEPES (pH 7.5), 10 mM MgCl2, 25 mM NaCl, 2 mM DTT and 1.5% DMSO. Final substrate concentrations in the assay were 45 μM ATP (Sigma Chemicals, St Louis, Mo.) and 200 μM peptide (American Peptide, Sunnyvale, Calif.). Reactions were carried out at 30° C. and 45 nM ROCK L. Final concentrations of the components of the coupled enzyme system were 2.5 mM phosphoenolpyruvate, 350 μM NADH, 30 μg/ml pyruvate kinase and 10 μg/ml lactate dehydrogenase.

[2] = biological target: T2, full length Aurora-A (AA 1-403) (Homo sapiens, UniProt O14965); assay: Aurora-A inhibition assay, standard coupled enzyme system; assay type: biochemical; conditions: average Ki if more than one value determined
T2 construct: full length Aurora-A (AA 1-403)
T2 sequence (O14965 1-403): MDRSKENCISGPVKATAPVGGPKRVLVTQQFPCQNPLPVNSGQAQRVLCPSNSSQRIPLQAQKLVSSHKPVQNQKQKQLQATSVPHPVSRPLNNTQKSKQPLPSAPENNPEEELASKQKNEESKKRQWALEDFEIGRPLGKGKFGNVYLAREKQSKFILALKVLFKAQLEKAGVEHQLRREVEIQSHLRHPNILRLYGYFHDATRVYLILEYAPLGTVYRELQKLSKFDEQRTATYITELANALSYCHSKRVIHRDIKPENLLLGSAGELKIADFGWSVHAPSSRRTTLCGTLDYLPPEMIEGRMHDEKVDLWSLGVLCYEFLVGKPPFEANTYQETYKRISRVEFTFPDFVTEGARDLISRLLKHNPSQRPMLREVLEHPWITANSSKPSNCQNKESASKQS
Experimental: Compounds were screened for their ability to inhibit full length Aurora-A (AA 1-403) activity using a standard coupled enzyme system (Fox et al., Protein Sci. 7, pp. 2249 (1998)). Reactions were carried out in a solution containing 100 mM HEPES (pH 7.5), 10 mM MgCl2, 25 mM NaCl, 300 μM NADH, 1 mM DTT and 3% DMSO. Final substrate concentrations in the assay were 200 μM ATP (Sigma Chemicals, St Louis, Mo.) and 800 μM peptide (LRRASLG, American Peptide, Sunnyvale, Calif.). Reactions were carried out at 30° C. and 35 nM Aurora-A. Final concentrations of the components of the coupled enzyme system were 2.5 mM phosphoenolpyruvate, 200 μM NADH, 60 μg/ml pyruvate kinase and 20 μg/ml lactate dehydrogenase.
An assay stock buffer solution was prepared containing all of the reagents listed above with the exception of ATP and the test compound of interest. The assay stock buffer solution (60 μl) was incubated in a 96 well plate with 2 μl of the test compound of interest at final concentrations spanning 0.002 μM to 30 μM at 30° C. for 10 min. Typically, a 12 point titration was conducted by preparing serial dilutions (from 1 mM compound stocks) with DMSO of the test compounds in daughter plates. The reaction was initiated by the addition of 5 μl of ATP (final concentration 200 μM). Rates of reaction were obtained using a Molecular Devices Spectramax plate reader (Sunnyvale, Calif.) over 10 min at 30° C. The Ki values were determined from the rate data as a function of inhibitor concentration using computerized nonlinear regression (Prism 3.0, Graphpad Software, San Diego, Calif.). Aurora-C activity was screened in a similar manner using Aurora-C protein. Aurora-B activity was screened using a radioactive assay, such as described in Examples 1 and 2, but using Aurora-B protein.

T1 sequence (Q13464 6-553, species assumed): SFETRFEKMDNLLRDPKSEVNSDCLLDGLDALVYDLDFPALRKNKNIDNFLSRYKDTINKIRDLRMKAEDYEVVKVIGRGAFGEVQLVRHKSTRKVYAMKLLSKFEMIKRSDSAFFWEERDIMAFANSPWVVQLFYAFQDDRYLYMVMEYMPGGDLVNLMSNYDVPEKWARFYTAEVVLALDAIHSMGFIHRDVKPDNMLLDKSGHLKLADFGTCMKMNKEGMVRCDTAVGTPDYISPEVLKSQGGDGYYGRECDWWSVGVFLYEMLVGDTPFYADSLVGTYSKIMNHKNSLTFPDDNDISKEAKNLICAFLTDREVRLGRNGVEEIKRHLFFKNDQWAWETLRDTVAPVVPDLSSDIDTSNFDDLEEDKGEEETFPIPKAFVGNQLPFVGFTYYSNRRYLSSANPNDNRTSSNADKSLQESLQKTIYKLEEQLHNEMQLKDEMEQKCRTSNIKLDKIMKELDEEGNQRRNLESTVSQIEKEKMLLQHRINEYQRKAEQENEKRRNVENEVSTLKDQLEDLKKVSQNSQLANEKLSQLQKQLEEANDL

| SMILES | Ki [1] | Ki [2] |
| --- | --- | --- |
| Clc1cnc2[nH]cc(-c3cccc(NCc4ccc(Cl)c(Cl)c4)n3)c2c1 [Compound 251] | 500 to 5000 nM | < 500 nM |
| CN(C)c1cccc(-c2c[nH]c3ncc(-c4ccccc4)cc23)n1 [Compound 253] | < 500 nM | < 500 nM |
| Cc1ccc(CNc2cccc(-c3c[nH]c4ncc(Cl)cc34)n2)cc1 [Compound 254] | 500 to 5000 nM | < 500 nM |
| CS(=O)(=O)Nc1ccc(-c2cnc3[nH]cc(-c4ccc(C(N)=O)cc4)c3c2)cc1 [Compound 255] | < 500 nM | < 500 nM |
| CNS(=O)(=O)c1ccc(-c2cnc3[nH]cc(-c4ccc(C(N)=O)cc4)c3c2)cc1 [Compound 256] | < 500 nM | < 500 nM |
| CC(C)(C)OC(=O)N1CCN(c2cccc(-c3c[nH]c4ncc(Cl)cc34)n2)CC1 [Compound 257] | 500 to 5000 nM | 500 to 5000 nM |
| COc1ccc(CNc2cccc(-c3c[nH]c4ncc(Cl)cc34)n2)cc1 [Compound 258] | 500 to 5000 nM | < 500 nM |
| CCCNc1cccc(-c2c[nH]c3ncc(-c4ccccc4)cc23)n1 [Compound 259] | < 500 nM | < 500 nM |
| Clc1ccc(CNc2cccc(-c3c[nH]c4ncc(-c5ccccc5)cc34)n2)cc1Cl [Compound 261] | 500 to 5000 nM | 500 to 5000 nM |
| Cc1ccc(CNc2cccc(-c3c[nH]c4ncc(-c5ccccc5)cc34)n2)cc1 [Compound 262] | 500 to 5000 nM | 500 to 5000 nM |
| Clc1cnc2[nH]cc(-c3cccc(Nc4ccccc4Cl)n3)c2c1 [Compound 263] | 500 to 5000 nM | < 500 nM |
| Clc1cnc2[nH]cc(-c3cccc(NCCc4ccccc4)n3)c2c1 [Compound 264] | 500 to 5000 nM | < 500 nM |
| c1ccc(Nc2cccc(-c3c[nH]c4ncc(-c5ccccc5)cc34)n2)cc1 [Compound 265] | 500 to 5000 nM | < 500 nM |
| Clc1ccccc1Nc1cccc(-c2c[nH]c3ncc(-c4ccccc4)cc23)n1 [Compound 266] | 500 to 5000 nM | < 500 nM |
| Clc1cnc2[nH]cc(-c3cccc(N4CCNCC4)n3)c2c1 [Compound 267] | < 500 nM | < 500 nM |
| OCCNc1cccc(-c2c[nH]c3ncc(Cl)cc23)n1 [Compound 270] | 500 to 5000 nM | 500 to 5000 nM |
| CN(C)CCCNc1cccc(-c2c[nH]c3ncc(Cl)cc23)n1 [Compound 271] | 500 to 5000 nM | < 500 nM |
| Clc1cccc(Nc2cccc(-c3c[nH]c4ncc(Cl)cc34)n2)c1 [Compound 273] | 500 to 5000 nM | < 500 nM |
| CN(Cc1ccccc1)c1cccc(-c2c[nH]c3ncc(Cl)cc23)n1 [Compound 274] | 500 to 5000 nM | < 500 nM |
| CN1CCN(c2cccc(-c3c[nH]c4ncc(Cl)cc34)n2)CC1 [Compound 275] | 500 to 5000 nM | 500 to 5000 nM |
| CC(=O)N1CCN(c2cccc(-c3c[nH]c4ncc(Cl)cc34)n2)CC1 [Compound 276] | 500 to 5000 nM | < 500 nM |
| OCCNc1cccc(-c2c[nH]c3ncc(-c4ccccc4)cc23)n1 [Compound 277] | < 500 nM | < 500 nM |
| CNc1cccc(-c2c[nH]c3ncc(-c4ccccc4)cc23)n1 [Compound 278] | < 500 nM | < 500 nM |
| CN(c1ccccc1)c1cccc(-c2c[nH]c3ncc(Cl)cc23)n1 [Compound 284] | 500 to 5000 nM | 500 to 5000 nM |
| C[C@H](Nc1nc(-c2c[nH]c3ncc(Cl)cc23)ncc1F)c1ccccc1 [Compound 286] | 500 to 5000 nM | < 500 nM |
| Clc1cnc2[nH]cc(-c3cccc(NC4CCCC4)n3)c2c1 [Compound 289] | 500 to 5000 nM | < 500 nM |
| CNc1cccc(-c2cn(C)c3ncc(Cl)cc23)n1 [Compound 292] | 500 to 5000 nM | > 5000 nM |

| SMILES | Ki [1] | Ki [2] |
| --- | --- | --- |
| c1ccc(-c2cnc3[nH]cc(-c4cccc(N5CCCC5)n4)c3c2)cc1 [Compound 293] | 500 to 5000 nM | 500 to 5000 nM |
| O=C(Nc1cccc(-c2c[nH]c3ncc(Cl)cc23)n1)c1ccccn1 [Compound 294] | 500 to 5000 nM | < 500 nM |
| NC(=O)c1ccc(Nc2nc(-c3c[nH]c4ncc(Cl)cc34)ncc2F)cc1 [Compound 295] | 500 to 5000 nM | < 500 nM |
| O=C(Nc1cccc(-c2c[nH]c3ncc(Cl)cc23)n1)c1cccnc1 [Compound 296] | 500 to 5000 nM | < 500 nM |
| COc1ccc(CNc2cccc(-c3c[nH]c4ncc(Cl)cc34)n2)cc1OC [Compound 297] | 500 to 5000 nM | < 500 nM |
| CNc1cccc(-c2c[nH]c3ncc(Cl)cc23)n1 [Compound 298] | 500 to 5000 nM | 500 to 5000 nM |
| Fc1cnc(-c2c[nH]c3ncc(Cl)cc23)nc1Nc1ccc(-n2ccnc2)cc1 [Compound 301] | 500 to 5000 nM | 500 to 5000 nM |
| COC(=O)c1cnc2[nH]cc(-c3ncc(F)c(N[C@@H](C)c4ccc(F)cc4)n3)c2c1 [Compound 307] | < 500 nM | < 500 nM |
| Fc1cnc(-c2c[nH]c3ncc(Cl)cc23)nc1SCc1ccc(Cl)cc1 [Compound 308] | 500 to 5000 nM | 500 to 5000 nM |
| CNC(=O)c1cnc2[nH]cc(-c3ncc(F)c(N[C@@H](C)c4ccc(F)cc4)n3)c2c1 [Compound 309] | 500 to 5000 nM | 500 to 5000 nM |
| CC(Nc1nc(-c2c[nH]c3ncc(Cl)cc23)ncc1F)c1ccc(Cl)cc1 (stereo not drawn) [Compound 311] | 500 to 5000 nM | < 500 nM |
| C[C@@H](Nc1nc(-c2c[nH]c3ncc(Cl)cc23)ncc1F)c1ccc(N)cc1 [Compound 313] | 500 to 5000 nM | < 500 nM |
| Fc1cnc(-c2c[nH]c3ncc(Cl)cc23)nc1NCc1ccncc1 [Compound 318] | 500 to 5000 nM | < 500 nM |
| C[C@H](Nc1nc(-c2c[nH]c3ncc(Cl)cc23)ncc1F)c1cccc(OCC(=O)O)c1 [Compound 336] | 500 to 5000 nM | < 500 nM |
| C[C@H](Nc1nc(-c2c[nH]c3ncc(Cl)cc23)ncc1F)C(=O)N(C)C [Compound 337] | 500 to 5000 nM | < 500 nM |
| C[C@H](Nc1nc(-c2c[nH]c3ncc(Cl)cc23)ncc1F)C(=O)NC1CC1 [Compound 338] | 500 to 5000 nM | < 500 nM |
| C[C@H](Nc1nc(-c2c[nH]c3ncc([N+](=O)[O-])cc23)ncc1F)c1ccc(F)cc1 [Compound 342] | 500 to 5000 nM | < 500 nM |
| Fc1cnc(-c2c[nH]c3ncc(Cl)cc23)nc1NC1CCNC1 (stereo not drawn) [Compound 344] | < 500 nM | < 500 nM |
| C[C@H](Nc1nc(-c2c[nH]c3ncc(Cl)cc23)ncc1F)C(=O)OC(C)(C)C [Compound 351] | 500 to 5000 nM | < 500 nM |
| C[C@H](Nc1nc(-c2c[nH]c3ncc(Br)cc23)ncc1F)c1ccc(F)cc1 [Compound 357] | 500 to 5000 nM | < 500 nM |
| C[C@H](Nc1nc(-c2c[nH]c3ncc(Cl)cc23)ncc1F)C(=O)O [Compound 360] | 500 to 5000 nM | 500 to 5000 nM |
| CC(C)NC(=O)[C@H](C)Nc1nc(-c2c[nH]c3ncc(Cl)cc23)ncc1F [Compound 363] | 500 to 5000 nM | < 500 nM |
| CC(C)CNC(=O)[C@H](C)Nc1nc(-c2c[nH]c3ncc(Cl)cc23)ncc1F [Compound 364] | 500 to 5000 nM | < 500 nM |
| C[C@H](Nc1nc(-c2c[nH]c3ncc(Cl)cc23)ncc1F)C(=O)NCCF [Compound 365] | 500 to 5000 nM | < 500 nM |
| Fc1cnc(-c2c[nH]c3ncc(Cl)cc23)nc1NCC1CCOCC1 [Compound 366] | 500 to 5000 nM | < 500 nM |
| CCNC(=O)[C@H](C)Nc1nc(-c2c[nH]c3ncc(Cl)cc23)ncc1F [Compound 367] | 500 to 5000 nM | < 500 nM |
| CN1CCC(CNc2nc(-c3c[nH]c4ncc(Cl)cc34)ncc2F)CC1 [Compound 372] | 500 to 5000 nM | < 500 nM |
